Data set [1] relates to PC-3 cells. Briefly: cellular growth (proliferation) assay, resazurin. It is filed as cell-based. The settings on record: for antiproliferative effect after UV irradiation: 365 nm, 1.1 kW/m^2, 48 h; for TGI (total growth inhibition) mark: without UV irradiation. Here is the method:
Growth assays on VEGFR-2 dependent PC-3 cells were performed.
PC-3 cells were purchased from CLS Cell Lines Service GmbH (Eppelheim, Germany). The cells were grown in DMEM:Hams F12 (1:1) medium with 5% FCS. PC-3 cells were incubated in a 5% CO2 humidified atmosphere at 37 °C.
The cells were grown in cell flasks until approximately 90% confluence and then seeded to give 13000 cells in 100 μL per well into 96-well CulturePlates™ (Perkin Elmer). In addition to the test plates, one plate was prepared for reference measurement at day zero. All plates were incubated for 24 h at 37 °C in a humidified atmosphere with 5% CO2. Compounds 1, 3, 4, and 5 were dissolved in 100% DMSO (v/v) and added to the test plates. The final DMSO concentration in the assay was 0.5% (v/v). Viability of the cells in the day zero control plates were determined on the same day without adding any compounds. For viability measurement the resazurin assay was used. The shift in the fluorescence signal was measured at the LS55 Fluorescence spectrometer (Perkin Elmer). For the photoactivation experiments the test plates were irradiated at 365 nm for 5 min (LED source: 8× Nichia NCSU033B, Sahlmann Photochemical Solutions, 50%, 1.1 kW/m^2). Test plates were incubated for further 48 h and cell viability was defined as described above. Measured raw data was converted into percent of cell growth by using the high control (0.5% DMSO (v/v) without compound) and the day zero control. For dose-response studies, 11 different concentrations of compounds were tested in duplicates. IC50 values were calculated using the 4-parameter logarithmic fit option of GraphPad Prism 5.
(In general: The colour change of resazurin is a common sign of viable cells or microbes.)

Data set [2] is described as follows: photoactivation (uncaging) at 365 nm in DMSO (HPLC, LC-MS). The conditions noted are these: 1 mM in DMSO, 5.4 W, up to 10 min. Format: physicochemical. An excerpt:
A further prerequisite for an application of caged prodrugs is a rapid and quantitative release of active parent compounds by irradiation. To examine this, we investigated the uncaging of 4 and 5 induced by irradiation at 365 nm with 5.4 W (Figure 5). […] Initially released maleimide 1 is converted to the intermediate 2 by proceeding irradiation, which is in line to the previously described instability of 1, (compare Figure 4a). […] Due to UV stability of 3 no other by-products could be detected.
After 0.25, 0.5, 0.75, 1, 2, 3, 5 and 10 min of irradiation samples were taken. Aliquots were diluted 1:5 with methanol and subsequently analyzed by HPLC. Additional to retention time LC-MS was used to proof identity.

Data set [3] deals with T1, VEGFR-2 (Homo sapiens, UniProt P35968).
T1 construct: determined using VEGFR-2 protein kinase by a radiometric ^33PanQinase® assay; purchased ProQinase (Freiburg, Germany)
T1 sequence (P35968 20-1356): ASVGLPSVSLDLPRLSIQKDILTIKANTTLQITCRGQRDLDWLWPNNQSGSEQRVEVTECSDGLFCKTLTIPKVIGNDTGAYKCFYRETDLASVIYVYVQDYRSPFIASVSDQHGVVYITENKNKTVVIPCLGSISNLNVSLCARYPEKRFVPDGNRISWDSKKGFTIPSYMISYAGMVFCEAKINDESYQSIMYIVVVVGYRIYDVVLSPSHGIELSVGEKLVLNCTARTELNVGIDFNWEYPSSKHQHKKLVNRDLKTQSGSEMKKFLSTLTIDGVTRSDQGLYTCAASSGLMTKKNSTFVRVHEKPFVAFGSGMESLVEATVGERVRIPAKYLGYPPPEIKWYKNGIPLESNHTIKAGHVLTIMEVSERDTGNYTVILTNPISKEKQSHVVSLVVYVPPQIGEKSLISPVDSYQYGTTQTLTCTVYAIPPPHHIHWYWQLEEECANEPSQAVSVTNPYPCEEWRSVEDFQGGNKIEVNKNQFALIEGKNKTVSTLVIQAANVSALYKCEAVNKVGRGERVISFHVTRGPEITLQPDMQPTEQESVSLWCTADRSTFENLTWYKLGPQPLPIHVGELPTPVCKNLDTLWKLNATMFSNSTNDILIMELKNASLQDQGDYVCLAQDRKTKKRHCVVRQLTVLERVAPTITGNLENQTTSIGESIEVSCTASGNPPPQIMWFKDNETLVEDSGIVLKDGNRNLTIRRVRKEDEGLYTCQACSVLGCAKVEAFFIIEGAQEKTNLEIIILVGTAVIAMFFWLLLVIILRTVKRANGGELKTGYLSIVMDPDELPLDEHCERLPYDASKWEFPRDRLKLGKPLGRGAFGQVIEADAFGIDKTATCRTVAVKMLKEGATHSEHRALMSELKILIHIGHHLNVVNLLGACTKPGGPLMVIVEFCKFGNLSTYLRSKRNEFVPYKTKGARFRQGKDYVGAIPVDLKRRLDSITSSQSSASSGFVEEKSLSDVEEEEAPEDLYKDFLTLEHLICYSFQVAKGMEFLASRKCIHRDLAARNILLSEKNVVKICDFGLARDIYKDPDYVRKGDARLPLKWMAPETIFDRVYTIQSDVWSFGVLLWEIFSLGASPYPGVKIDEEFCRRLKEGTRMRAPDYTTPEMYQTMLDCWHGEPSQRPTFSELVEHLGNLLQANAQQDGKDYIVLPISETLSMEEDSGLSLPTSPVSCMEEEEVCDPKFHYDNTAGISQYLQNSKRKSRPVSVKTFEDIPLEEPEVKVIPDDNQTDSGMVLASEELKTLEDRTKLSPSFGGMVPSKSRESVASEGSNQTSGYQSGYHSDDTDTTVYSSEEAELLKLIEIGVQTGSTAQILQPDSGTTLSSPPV
Put plainly: radiometric 33PanQinase VEGFR-2 kinase assay (ProQinase). Format: biochemical. The settings on record: 10 semi-log concentrations, single samples, 1% DMSO. Here is the method: As predicted by molecular modeling, insertion of the protecting group DMNB should diminish the inhibitory activity both of the maleimide 1 and the carbazole 3. […] The IC50 values towards VEGFR-2 were determined (Table 1).
The VEGFR-2 IC50 profile for 1, 3, 4 and 5 was determined using VEGFR-2 protein kinase by a radiometric ^33PanQinase® assay. […] Prior to testing, the compounds were dissolved to prepare 1 × 10^−2 M stock solutions in 100% DMSO. The final DMSO concentration in the reaction cocktails was 1% in all cases. Analyses were performed by ProQinase (Freiburg, Germany).

The test system of data set [4] is PC-3 cells. Put plainly: cellular uptake by fluorescence microscopy (cell staining). It is filed as cell-based. The conditions noted are these: live PC-3 cells, 10 µM, 30 min, autofluorescence. On the procedure:
Next, we investigated the cellular bioavailability of the caged prodrugs. For this purpose, we used the autofluorescence of the carbazole 3 and its caged derivative 5. The emission spectra of both compounds are shown in the Supplementary Figure S6. The fluorescence microscopy was used to explore the uptake of the compounds into the cells. Live PC-3 cells were stained with 10 µM solutions of 3 or 5, and then fixed with formalin. Subsequently, the cell nuclei were counterstained with 1 µg/mL DAPI.
PC-3 cells were stained with the carbazole 3 and its caged derivative 5. For this purpose, the cells were seeded to give 15,000 cells in 50 µL per well into 96-well half area microplate (Ref.: 675986, Greiner bio-one, Kremsmünster, Austria). The plate was incubated for 48 h at 37 °C in a humidified atmosphere with 5% CO2. Compounds 3 and 5 were dissolved in DMEM:Hams F12 (1:1) medium with 5% FCS and added to the cells to give the endconcentration of 10 µM, respectively. The cells were incubated with the compounds for 30 min at 37 °C. After that, the cells were washed twice with PBS and fixed with 3.3% formalin for 15 min. […] After 30 min incubation at 37 °C, the cells were washed with PBS and the fluorescence images were taken at the ImageXpress® Micro XL (Molecular Devices, Sunnyvale CA, USA). […]

Setting [5] is: Homo sapiens, PC-3, light or radiation study, irradiated at 365 nm, 5 min, 1.1 kW/m^2, cell growth after 48 h, read-out: GI50 after Irradiation.
[6] abbreviates: irradiated at 365 nm, 5 min, 1.1 kW/m^2, cell growth after 48 h, read-out: GI50 after Irradiation.

These results are taken from PMC6274539, “Photoactivatable Caged Prodrugs of VEGFR-2 Kinase Inhibitors” (Molecules, 2016).

Entries after “also recorded” stand apart in the source; their conditions may differ. Read-outs that look alike come from different tables or passages of the source.

In general, GI50 refers to the concentration giving 50% growth inhibition. What is called melting point is the temperature, or range, at which the solid turns liquid. As a reminder, the IC50 is the midpoint of a concentration-inhibition curve. Low readings indicate inhibition by little substance, high ones a need for much substance.

Turning to `C[C@H](NC(=O)OC(C)(C)C)C(=O)O` [Boc-Ala, reference compound], the “antiproliferative effect after UV irradiation” value in data set [1] (5 min) is reported as “does not have any effect on cellular growth”. Moreover, in data set [1] (no UV irradiation, 48 h), the “antiproliferative effect without UV irradiation” value was “do not show any; also recorded: did not show any antiproliferative effects”.
For `COc1cc(CN2C(=O)C(c3cc(OC)c(OC)c(OC)c3)=C(c3c[nH]c4ccccc34)C2=O)c([N+](=O)[O-])cc1OC` [Compound 4, 1-(4,5-Dimethoxy-2-nitrobenzyl)-3-(1H-indol-3-yl)-4-(3,4,5-trimethoxyphenyl)-1H-pyrrole-2,5-dione], the melting point came to 205 °C. In addition, the GI50 in data set [1] (setting [5]) was 0.1 µM. Besides, in data set [1] (after irradiation, PPG from DMNB-Boc-Ala), the “concentration at which the cleaved PPG shows toxicity relative to efficacious concentration of the irradiated compound” value was “approximately 500 fold”. For the same molecule, the “antiproliferative effect without UV irradiation” value in data set [1] (no UV irradiation, 48 h) is on record as “do not show any; also recorded: very marginal antiproliferative activity”. For the same molecule, in data set [1] (no UV irradiation, cell growth after 48 h), the “GI50 without Irradiation” value is on record as “not reached”. Also, in data set [1] (48 h), the “TGI (total growth inhibition) mark” value is on record as “not reached even at high concentrations”. The “photoinduced release of parent compound (uncaging)” value in data set [2] is listed as “cleavage of the DMNB PPG”. In data set [3], this molecule had an IC50 of 4.59 µM.
On to `COc1cc(CN2C(=O)c3c(c4c5ccccc5[nH]c4c4c(OC)c(OC)c(OC)cc34)C2=O)c([N+](=O)[O-])cc1OC` [Compound 5, 2-(4,5-Dimethoxy-2-nitrobenzyl)-5,6,7-trimethoxybenzo[a]pyrrolo[3,4-c]carbazole-1,3(2H,8H)-dione], for which the melting point is 283 °C. For the same molecule, the GI50 in data set [1] (Homo sapiens, PC-3, light or radiation study, 48 h, no UV irradiation, cell growth after 48 h, read-out: GI50 without Irradiation) is 34.6 µM. For the same molecule, the 50% growth inhibitory concentration (GI50) in data set [1] (setting [5]) turned out to be 0.22 µM. In addition, in data set [1] (setting [6]), the GI50 worked out at 0.2 µM. The “TGI (total growth inhibition) mark” value in data set [1] (48 h) is reported as “not reached even at high concentrations”. The “photoinduced release of parent compound (uncaging)” value in data set [2] was “rapidly released”. The cellular uptake result in data set [4] was “taken up into the cells, but not within the cell nuclei”. This molecule had an IC50 in data set [3] of 44.8 µM.
Take `COc1cc(COC(=O)[C@H](C)NC(=O)OC(C)(C)C)c([N+](=O)[O-])cc1OC` [DMNB-Boc-Ala, reference compound]: the “antiproliferative effect after UV irradiation” value in data set [1] (5 min) was “distinct antiproliferative activity”. Moreover, the GI50 in data set [1] (setting [6]) turned out to be 50.3 µM. In addition, the “antiproliferative effect without UV irradiation” value in data set [1] (no UV irradiation, 48 h) is listed as “do not show any; also recorded: did not show any antiproliferative effects”.
